{"source": "patent US20060069132A1", "about": "“Azolecarboxamide herbicides” (priority 2004, published 2006)", "key": {"barnyardgrass [1]": {"tested_on": "barnyardgrass", "experiment": "Test C flooded paddy test", "type": "in vivo, Echinochloa crus-galli", "method": "(§1) At the same time, plants selected from these crop and weed species and also winter barley (Hordeum vulgare L.), blackgrass (Alopecurus myosuroides Huds.), canarygrass (Phalaris minor Retz.), chickweed (Stellaria media (L.) Vill.), downy bromegrass (Bromus tectorum L.), green foxtail (Setaria viridis (L.) Beauv.), Italian ryegrass (Lolium multiflorum Lam.), wheat (Triticum aestivum L.), wild oat (Avenafatua L.) and windgrass (Apera spica-venti (L.) Beauv.) were treated with postemergence applications of some of the test chemicals formulated in the same manner. Plants ranged in height from 2 to 18 cm (1- to 4-leaf stage) for postemergence treatments. Plant species in the flooded paddy test consisted of rice (Oryza sativa), smallflower umbrella sedge (Cyperus difformis L.), ducksalad (Heteranthera limosa (Sw.) Willd.) and barnyardgrass (Echinochloa crus-galli (L.) Beauv.) grown to the 2-leaf stage for testing. Treated plants and controls were maintained in a greenhouse for 12 to 14 days, after which time all species were compared to controls and visually evaluated. Plant response ratings, summarized in Table C, are based on a scale of 0 to 100 where 0 is no effect and 100 is complete control. A dash (-) response means no test result."}, "barnyardgrass [2]": {"tested_on": "barnyardgrass", "experiment": "Test B flooded paddy test", "type": "in vivo, Echinochloa crus-galli", "conditions": "1000 g ai/ha, scale 0 to 100 (0 no effect, 100 complete control)", "outline": "(§2)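 After treating 2-leaf paddy plants or 2–18 cm postemergence plants (1 to 4 leaves) with formulated chemical, researchers kept them in a greenhouse for 13–15 days. Effects were judged visually versus controls: 0 indicates none, 100 total control.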"}, "[3]": {"tested_on": "small flower umbrella sedge", "experiment": "Test B flooded paddy test", "type": "in vivo, Cyperus difformis", "conditions": "1000 g ai/ha, scale 0 to 100 (0 no effect, 100 complete control)", "outline": "as §2"}, "wheat": {"tested_on": "wheat", "experiment": "Test B postemergence herbicide test", "type": "in vivo, Triticum aestivum", "design": "key to Wheat plant response rating: 0 = no effect, 100 = complete control", "outline": "(§3)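 Treated at 2-leaf (paddy) or 1–4-leaf, 2–18 cm (postemergence); greenhouse 13–15 d; visual score vs control, 0 none to 100 complete control; dash = not tested.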"}, "corn": {"tested_on": "corn", "experiment": "Test B pre-/postemergence herbicide test", "type": "in vivo, Zea mays", "conditions": "for Corn plant response rating: scale 0 (no effect) to 100 (complete control)", "outline": "(§4)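 Test chemicals in a non-phytotoxic solvent mixture with surfactant were applied preemergence to seeded species and postemergence to plants 2-18 cm tall (1- to 4-leaf stage); rice and barnyardgrass were also tested in a flooded paddy at the 2-leaf stage. Visual rating versus controls after 13-15 days in greenhouse, scale 0 (no effect) to 100 (complete control).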"}, "barnyardgrass [4]": {"tested_on": "barnyardgrass", "experiment": "Test B pre-/postemergence herbicide test", "type": "in vivo, Echinochloa crus-galli", "conditions": "for Barnyardgrass plant response rating: scale 0 (no effect) to 100 (complete control)", "outline": "(§5)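 Flooded paddy rice and barnyardgrass were treated at the 2-leaf stage; upland plantings received compound either on sown seed or on 1- to 4-leaf seedlings. All were kept 13–15 days in a greenhouse and scored visually, 0–100, relative to untreated plants.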"}, "pigweed": {"tested_on": "pigweed", "experiment": "Test B pre-/postemergence herbicide test", "type": "in vivo, Amaranthus retroflexus", "conditions": "for Pigweed plant response rating: scale 0 (no effect) to 100 (complete control)", "outline": "as §4"}, "lambsquarters": {"tested_on": "lambsquarters", "experiment": "Test B pre-/postemergence herbicide test", "type": "in vivo, Chenopodium album", "conditions": "for Lambsquarters plant response rating: scale 0 (no effect) to 100 (complete control)", "outline": "as §4"}, "wild oat": {"tested_on": "wild oat", "experiment": "Test B postemergence herbicide test", "type": "in vivo, Avena fatua", "conditions": "scale 0 (no effect) to 100 (complete control)", "outline": "as §3"}, "large crabgrass": {"tested_on": "large crabgrass", "experiment": "Test B pre-/postemergence herbicide test", "type": "in vivo, Digitaria sanguinalis", "conditions": "for Crabgrass, Large plant response rating: scale 0 (no effect) to 100 (complete control)", "outline": "as §4"}, "ducksalad [5]": {"tested_on": "ducksalad", "experiment": "Test C flooded paddy test", "type": "in vivo, Heteranthera limosa", "method": "as §1"}, "velvetleaf": {"tested_on": "velvetleaf", "experiment": "Test B pre-/postemergence herbicide test", "type": "in vivo, Abutilon theophrasti", "conditions": "for Velvetleaf plant response rating: scale 0 (no effect) to 100 (complete control)", "outline": "as §4"}, "blackgrass": {"tested_on": "blackgrass", "experiment": "Test B postemergence herbicide test", "type": "in vivo, Alopecurus myosuroides", "conditions": "scale 0 (no effect) to 100 (complete control)", "outline": "as §2"}, "cocklebur": {"tested_on": "cocklebur", "experiment": "Test B pre-/postemergence herbicide test", "type": "in vivo, Xanthium strumarium", "conditions": "for Cocklebur plant response rating: scale 0 (no effect) to 100 (complete control)", "outline": "as §5"}, "morningglory": {"tested_on": "morningglory", "experiment": "Test B pre-/postemergence herbicide test", "type": "in vivo, Ipomoea coccinea", "conditions": "for Morningglory plant response rating: scale 0 (no effect) to 100 (complete control)", "outline": "as §5"}, "[6]": {"tested_on": "smallflower umbrella sedge", "experiment": "Test C flooded paddy test", "type": "in vivo, Cyperus difformis", "method": "as §1"}, "giant foxtail": {"tested_on": "giant foxtail", "experiment": "Test B pre-/postemergence herbicide test", "type": "in vivo, Setaria faberi", "conditions": "for Foxtail, Giant plant response rating: scale 0 (no effect) to 100 (complete control)", "outline": "as §4"}, "Surinam grass": {"tested_on": "Surinam grass", "experiment": "Test B pre-/postemergence herbicide test", "type": "in vivo, Urochloa decumbens", "conditions": "for Surinam Grass plant response rating: scale 0 (no effect) to 100 (complete control)", "outline": "as §4"}, "rice [7]": {"tested_on": "rice", "experiment": "Test B flooded paddy test", "type": "in vivo, Oryza sativa", "conditions": "1000 g ai/ha, scale 0 to 100 (0 no effect, 100 complete control)", "outline": "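Paddy species grown to the 2-leaf stage under flooding; blackgrass sprayed postemergence at 2–18 cm (1- to 4-leaf stage). Plants kept in a greenhouse for 13 to 15 days, then visually rated against controls on 0 (no effect) to 100 (complete control).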"}, "rice [8]": {"tested_on": "rice", "experiment": "Test C flooded paddy test", "type": "in vivo, Oryza sativa", "method": "as §1"}, "ducksalad [9]": {"tested_on": "ducksalad", "experiment": "Test B flooded paddy test", "type": "in vivo, Heteranthera limosa", "conditions": "1000 g ai/ha, scale 0 to 100 (0 no effect, 100 complete control)", "outline": "as §2"}, "[10]": {"conditions": "125 g ai/ha, scale 0 to 100 (0 no effect, 100 complete control)"}, "[11]": {"conditions": "250 g ai/ha, scale of 0 to 100, 0 is no effect, 100 is complete control"}, "[12]": {"conditions": "500 g ai/ha, visual rating after 12 to 14 days, scale 0 to 100 (0 no effect, 100 complete control)"}, "[13]": {"conditions": "125 g ai/ha, 0 is no effect, 100 is complete control, preemergence"}, "[14]": {"conditions": "125 g ai/ha, visual rating, postemergence"}}}
{"smiles": "C#CCNC(=O)c1cccc(NC(=O)c2nn(C(C)(C)C)nc2C)c1", "note": "[Compound 394]", "values": [{"measurement": "Barnyardgrass plant response rating", "setting": "barnyardgrass [1]; 62 g ai/ha, scale 0 to 100 (0 no effect, 100 complete control)", "value": 0}, {"measurement": "Barnyardgrass plant response rating", "setting": "barnyardgrass [1]; [10]", "value": 0}, {"measurement": "Barnyardgrass plant response rating", "setting": "barnyardgrass [1]; [11]", "value": 0}, {"measurement": "Plant response rating, Barnyardgrass", "setting": "barnyardgrass [1]; [12]", "value": 20}, {"measurement": "Barnyardgrass plant response rating", "setting": "barnyardgrass [2]", "value": 70}, {"measurement": "Sedge, Umbrella plant response rating", "setting": "[3]", "value": 90}, {"measurement": "Wheat plant response rating", "setting": "wheat; 125 g ai/ha, visual rating, scale 0 (no effect) to 100 (complete control), postemergence", "value": 0}, {"measurement": "Wheat plant response rating", "setting": "wheat; 500 g ai/ha, scale 0 to 100, 0 no effect, 100 complete control, preemergence", "value": 20}, {"measurement": "Wheat plant response rating", "setting": "wheat; Postemergence, 500 g ai/ha, scale 0 (no effect) to 100 (complete control)", "value": 0}, {"measurement": "Plant response rating (0 to 100 scale), Corn", "setting": "corn; [13]", "value": 0}, {"measurement": "Corn plant response rating", "setting": "corn; [14]", "value": 0}, {"measurement": "Corn plant response rating", "setting": "corn; Postemergence, 500 g ai/ha", "value": 10}, {"measurement": "Plant response rating (0 to 100 scale), Barnyardgrass", "setting": "barnyardgrass [4]; [13]", "value": 30}, {"measurement": "Barnyardgrass plant response rating", "setting": "barnyardgrass [4]; [14]", "value": 0}, {"measurement": "Barnyardgrass plant response rating", "setting": "barnyardgrass [4]; Postemergence, 500 g ai/ha", "value": 10}, {"measurement": "Plant response rating (0 to 100 scale), Pigweed", "setting": "pigweed; [13]", "value": 10}, {"measurement": "Pigweed plant response rating", "setting": "pigweed; [14]", "value": 30}, {"measurement": "Pigweed plant response rating", "setting": "pigweed; Postemergence, 500 g ai/ha", "value": 60}, {"measurement": "Plant response rating (0 to 100 scale), Lambsquarters", "setting": "lambsquarters; [13]", "value": 10}, {"measurement": "Lambsquarters plant response rating", "setting": "lambsquarters; [14]", "value": 30}, {"measurement": "Lambsquarters plant response rating", "setting": "lambsquarters; Postemergence, 500 g ai/ha", "value": 60}, {"measurement": "Oat, Wild plant response rating", "setting": "wild oat; [14]", "value": 0}, {"measurement": "Oat, Wild plant response rating", "setting": "wild oat; Postemergence, 500 g ai/ha", "value": 0}, {"measurement": "Plant response rating (0 to 100 scale), Crabgrass, Large", "setting": "large crabgrass; [13]", "value": 40}, {"measurement": "Crabgrass, Large plant response rating", "setting": "large crabgrass; [14]", "value": 10}, {"measurement": "Crabgrass, Large plant response rating", "setting": "large crabgrass; Postemergence, 500 g ai/ha", "value": 20}, {"measurement": "Ducksalad plant response rating", "setting": "ducksalad [5]; 62 g ai/ha, scale 0 to 100", "value": 0}, {"measurement": "Ducksalad plant response rating", "setting": "ducksalad [5]; [10]", "value": 0}, {"measurement": "Ducksalad plant response rating", "setting": "ducksalad [5]; [11]", "value": 10}, {"measurement": "Plant response rating, Ducksalad", "setting": "ducksalad [5]; [12]", "value": 45}, {"measurement": "Plant response rating (0 to 100 scale), Velvetleaf", "setting": "velvetleaf; [13]", "value": 0}, {"measurement": "Velvetleaf plant response rating", "setting": "velvetleaf; [14]", "value": 10}, {"measurement": "Velvetleaf plant response rating", "setting": "velvetleaf; Postemergence, 500 g ai/ha", "value": 30}, {"measurement": "Blackgrass plant response rating", "setting": "blackgrass; [14]", "value": 0}, {"measurement": "Blackgrass plant response rating", "setting": "blackgrass; Postemergence, 500 g ai/ha", "value": 20}, {"measurement": "Plant response rating (0 to 100 scale), Cocklebur", "setting": "cocklebur; [13]", "value": 20}, {"measurement": "Cocklebur plant response rating", "setting": "cocklebur; [14]", "value": 10}, {"measurement": "Cocklebur plant response rating", "setting": "cocklebur; Postemergence, 500 g ai/ha", "value": 20}, {"measurement": "Plant response rating (0 to 100 scale), Morningglory", "setting": "morningglory; [13]", "value": 0}, {"measurement": "Morningglory plant response rating", "setting": "morningglory; [14]", "value": 20}, {"measurement": "Morningglory plant response rating", "setting": "morningglory; Postemergence, 500 g ai/ha", "value": 20}, {"measurement": "Sedge, Umbrella plant response rating", "setting": "[6]; 62 g ai/ha, scale 0 to 100", "value": 0}, {"measurement": "Sedge, Umbrella plant response rating", "setting": "[6]; [10]", "value": 35}, {"measurement": "Sedge, Umbrella plant response rating", "setting": "[6]; [11]", "value": 60}, {"measurement": "Plant response rating, Sedge, Umbrella", "setting": "[6]; [12]", "value": 70}, {"measurement": "Plant response rating (0 to 100 scale), Foxtail, Giant", "setting": "giant foxtail; [13]", "value": 10}, {"measurement": "Foxtail, Giant plant response rating", "setting": "giant foxtail; [14]", "value": 20}, {"measurement": "Foxtail, Giant plant response rating", "setting": "giant foxtail; Postemergence, 500 g ai/ha", "value": 30}, {"measurement": "Plant response rating (0 to 100 scale), Surinam Grass", "setting": "Surinam grass; [13]", "value": 10}, {"measurement": "Surinam Grass plant response rating", "setting": "Surinam grass; [14]", "value": 10}, {"measurement": "Surinam Grass plant response rating", "setting": "Surinam grass; Postemergence, 500 g ai/ha", "value": 20}, {"measurement": "Rice plant response rating", "setting": "rice [7]", "value": 60}, {"measurement": "Rice plant response rating", "setting": "rice [8]; 62 g ai/ha, scale 0 to 100", "value": 0}, {"measurement": "Rice plant response rating", "setting": "rice [8]; [10]", "value": 0}, {"measurement": "Rice plant response rating", "setting": "rice [8]; [11]", "value": 45}, {"measurement": "Plant response rating, Rice", "setting": "rice [8]; [12]", "value": 60}, {"measurement": "Ducksalad plant response rating", "setting": "ducksalad [9]", "value": 80}]}
